Measured values: the NIST ThermoML archive (doi:10.1021/je900307z)
± gives the expanded uncertainty stated by the source.

Tests used:
[1] = 101.33 kPa, Liquid; for viscosity: Capillary tube (Ostwald / Ubbelohde) method; for mass density: Vibrating tube method
[2] = molar heat capacity at constant pressure; settings: 101.33 kPa, Liquid, Small sample (50 mg) DSC
[3] = refractive index (Na D-line) (dimensionless); settings: 101.33 kPa, Liquid, Standard Abbe refractometry

SMILES	viscosity ([1]; 293.15 K) [mPa·s]	mass density ([1]; 293.15 K) [kg/m3]	viscosity ([1]; 313.15 K) [mPa·s]	mass density ([1]; 313.15 K) [kg/m3]	molar heat capacity at constant pressure ([2]; 288.15 K) [J/K/mol]	molar heat capacity at constant pressure ([2]; 293.15 K) [J/K/mol]	molar heat capacity at constant pressure ([2]; 298.15 K) [J/K/mol]	molar heat capacity at constant pressure ([2]; 303.15 K) [J/K/mol]	molar heat capacity at constant pressure ([2]; 308.15 K) [J/K/mol]	molar heat capacity at constant pressure ([2]; 313.15 K) [J/K/mol]	molar heat capacity at constant pressure ([2]; 318.15 K) [J/K/mol]	molar heat capacity at constant pressure ([2]; 323.15 K) [J/K/mol]	refractive index ([3]; 293.15 K)	refractive index ([3]; 313.15 K)
CC1COC(=O)O1 (configuration not stated) [4-methyl-1,3-dioxolan-2-one]	2.778 ± 0.022	1204.66 ± 0.18	1.909 ± 0.017	1183.06 ± 0.17	166.28 ± 3.3	167.97 ± 3.4	169.48 ± 3.4	170.79 ± 3.4	172.22 ± 3.4	174.14 ± 3.5	175.87 ± 3.5	177.45 ± 3.5	1.4223 ± 0.0006	1.4149 ± 0.0006
CCOC(=O)OCC [diethyl carbonate]	0.817 ± 0.008	975.84 ± 0.3	0.623 ± 0.007	952.39 ± 0.3	210.2 ± 4.2	211.49 ± 4.2	212.46 ± 4.2	213.83 ± 4.3	214.89 ± 4.3	215.8 ± 4.3	218.55 ± 4.4	220.32 ± 4.4	1.3858 ± 0.0007	1.3764 ± 0.0007
COC(=O)OC [dimethyl carbonate]	0.629 ± 0.006	1069.8 ± 0.37	0.494 ± 0.005	1043.25 ± 0.35	165.51 ± 3.3	166.07 ± 3.3	167.1 ± 3.3	168.48 ± 3.4	169.72 ± 3.4	170.83 ± 3.4	172.18 ± 3.4	173.68 ± 3.5	1.3689 ± 0.0006	1.3604 ± 0.0006
